Experimental data: patent US8501238B2, “Anti-infective agents and uses thereof” (priority 2007, dated 2013)

Assays:
[1] = molecular target: T1, HCV polymerase 1B (Δ21 NS5B) (Hepatitis C virus genotype 1b, UniProt P26663); assay: biochemical
T1 construct: 20 to 50nM Δ21 NS5B
Protocol: (§1) Either two-fold serial dilutions (fractional inhibition assay) or a narrower range of dilutions spanning the IC50 of the inhibitor (tight binding assay) of the inhibitors were incubated with 20mM Tris-Cl pH 7.4, 2 mM MnCl2, 1 mM dithiothreitol, 1 mM ethylene diamine tetraacetic acid (EDTA), 60 to 125μM GTP and 20 to 50nM Δ21 NS5B (HCV Strain 1B (BK, Genbank accession number M58335, or H77, Genbank accession number AF011751)) for 15min at room temperature. The reaction was initiated by the addition of 20μM CTP, 20μM ATP, 1μM ^3H-UTP (10mCi/umol), 5nM template RNA and 0.1 U/μl RNase inhibitor (RNasin, Promega), and allowed to proceed for 2 to 4h at room temperature. Reaction volume was 50μl. The reaction was terminated by the addition of 1 volume of 4mM spermine in 10mM Tris-Cl pH 8.0, 1mM EDTA. After incubation for at least 15 min at room temperature, the precipitated RNA was captured by filtering through a GF/B filter (Millipore) in a 96 well format. The filter plate was washed three times with 200μl each of 2mM spermine, 10mM Tris-Cl pH 8.0, lmM EDTA, and 2 times with ethanol. After air-drying, 30μl of Microscint 20 scintillation cocktail (Packard) was added to each well, and the retained cpm were determined by scintillation counting. […] Retained cpm were plotted vs. inhibitor concentration and fit to equation 1 using non-linear regression (ref. 1) to obtain the IC50 values: Retained cpm=A[sqrt{(IC50+It−Et)^2+4*IC50*Et}−([…])]
Ref. Morrison, J. F. and S. R. Stone. 1985. Approaches to the study and analysis of the inhibition of enzymes by slow- and tight-binding inhibitors. Comments Mol. Cell. Biophys. 2: 347-368.
(§2) The sequence of the template RNA used was: 5′-[…]-3′

[2] = system: genotype 1a-H77 subgenomic replicon cell line; assay: microbe, parasite or virus in culture; assay type: cell-based, HCV; settings: Hepatitis C virus, 72 h, read-out: EC50 1a
[3] = molecular target: T2, HCV polymerase 1A (Δ21 NS5B) (Hepatitis C virus genotype 1a, UniProt P27958); assay: HCV Polymerase Inhibition Assay (1a); assay type: biochemical
T2 construct: 20 to 50nM Δ21 NS5B
T2 sequence (P27958 2421-2990, stated change not applied): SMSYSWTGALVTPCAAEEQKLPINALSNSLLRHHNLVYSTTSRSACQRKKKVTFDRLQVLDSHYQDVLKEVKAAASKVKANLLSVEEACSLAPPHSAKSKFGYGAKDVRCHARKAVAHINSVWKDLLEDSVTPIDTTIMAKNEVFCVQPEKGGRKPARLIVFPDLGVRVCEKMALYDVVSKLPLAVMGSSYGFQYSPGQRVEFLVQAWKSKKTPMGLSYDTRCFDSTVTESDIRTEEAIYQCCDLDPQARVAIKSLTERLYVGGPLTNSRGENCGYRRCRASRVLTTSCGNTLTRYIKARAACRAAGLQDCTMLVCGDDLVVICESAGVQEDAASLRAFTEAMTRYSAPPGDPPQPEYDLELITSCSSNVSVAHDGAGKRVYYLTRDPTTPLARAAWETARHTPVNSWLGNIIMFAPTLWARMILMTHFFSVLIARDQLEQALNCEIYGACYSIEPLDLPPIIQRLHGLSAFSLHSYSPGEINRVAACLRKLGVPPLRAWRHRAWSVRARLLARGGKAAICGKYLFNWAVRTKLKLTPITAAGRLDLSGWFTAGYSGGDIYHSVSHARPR
Protocol: as §1, with “The” for “Either two-fold serial dilutions (fractional inhibition assay) or a narrower range of dilutions spanning the IC50 of the inhibitor (tight binding assay) of the inhibitors were incubated with 20mM Tris-Cl pH 7.4, 2 mM MnCl2, 1 mM dithiothreitol, 1 mM ethylene diamine tetraacetic acid (EDTA), 60 to 125μM GTP and 20 to 50nM Δ21 NS5B (HCV Strain 1B (BK, Genbank accession number M58335, or H77, Genbank accession number AF011751)) for 15min at room temperature. The”
Ref. Morrison, J. F. and S. R. Stone. […] Approaches to the study and analysis of the inhibition of enzymes by slow- and tight-binding inhibitors. Comments Mol. Cell. Biophys.
as §2

[4] = system: genotype 1b-Con1 subgenomic replicon cell line; assay: microbe, parasite or virus in culture; assay type: cell-based, HCV; settings: Hepatitis C virus, 72 h, read-out: EC50 1b

T1 sequence (P26663 2420-2989, stated change not applied): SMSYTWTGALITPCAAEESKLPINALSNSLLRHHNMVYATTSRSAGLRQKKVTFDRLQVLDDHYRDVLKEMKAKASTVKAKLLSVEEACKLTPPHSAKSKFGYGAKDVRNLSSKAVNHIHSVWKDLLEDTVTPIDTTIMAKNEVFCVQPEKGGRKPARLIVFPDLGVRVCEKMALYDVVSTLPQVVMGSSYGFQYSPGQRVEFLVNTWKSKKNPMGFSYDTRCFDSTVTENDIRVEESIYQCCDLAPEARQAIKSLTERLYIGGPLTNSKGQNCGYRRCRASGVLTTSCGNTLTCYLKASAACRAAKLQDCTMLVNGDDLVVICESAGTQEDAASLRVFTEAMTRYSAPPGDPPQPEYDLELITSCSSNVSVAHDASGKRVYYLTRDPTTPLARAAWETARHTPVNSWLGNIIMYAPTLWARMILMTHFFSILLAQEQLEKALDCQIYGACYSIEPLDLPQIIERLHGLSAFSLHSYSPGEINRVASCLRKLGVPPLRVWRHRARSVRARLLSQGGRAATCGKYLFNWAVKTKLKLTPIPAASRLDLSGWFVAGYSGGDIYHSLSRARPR

Compound | IC50 [1] | EC50 [2] | IC50 [3] | EC50 [4]
COCC(C)(C)c1cc(-n2ccc(=O)[nH]c2=O)cc(-c2ccc3cc(NS(C)(=O)=O)ccc3c2)c1OC [IB-L0-2.66, N-(6-(5-(2,4-dioxo-3,4-dihydropyrimidin-1(2H)-yl)-2-methoxy-3-(1-methoxy-2-methylpropan-2-yl)phenyl)naphthalen-2-yl)methanesulfonamide] | 10 to 100 nM | 100 to 1000 nM | 10 to 100 nM | 10 to 100 nM
COc1c(-c2ccccc2)cc(-n2ccc(=O)[nH]c2=O)cc1-c1ccc2cc(NS(C)(=O)=O)ccc2c1 [IB-L0-2.71, N-(6-(5-(2,4-dioxo-3,4-dihydropyrimidin-1(2H)-yl)-2-methoxy-biphenyl-3-yl)naphthalen-2-yl)methanesulfonamide] | 100 to 1000 nM | 100 to 1000 nM | 100 to 1000 nM | 10 to 100 nM
COc1c(-c2nc3cc(NS(C)(=O)=O)ccc3s2)cc(N2CCC(=O)NC2=O)cc1C(C)(C)C [IA-L0-2.4, N-(2-(3-tert-butyl-5-(2,4-dioxotetrahydropyrimidin-1(2H)-yl)-2-methoxyphenyl)benzo[d]thiazol-5-yl)methanesulfonamide] | 10 to 100 nM | > 1000 nM | 10 to 100 nM | 100 to 1000 nM
COc1c(N2Cc3ccc(NS(C)(=O)=O)cc3C2)cc(-n2ccc(=O)[nH]c2=O)cc1C(C)(C)C [IB-L0-2.79, N-(2-(3-tert-butyl-5-(2,4-dioxo-3,4-dihydropyrimidin-1(2H)-yl)-2-methoxyphenyl)isoindolin-5-yl)methanesulfonamide] | 10 to 100 nM | 100 to 1000 nM | 10 to 100 nM | 100 to 1000 nM
COC(=O)c1cc(-n2ccc(=O)[nH]c2=O)cc(-c2ccc3cc(NS(C)(=O)=O)ccc3c2)c1OC [IB-L0-2.72, methyl 5-(2,4-dioxo-3,4-dihydropyrimidin-1(2H)-yl)-2-methoxy-3-(6-(methylsulfonamido)naphthalen-2-yl)benzoate] | 100 to 1000 nM | > 1000 nM | 100 to 1000 nM | 100 to 1000 nM
COc1c(Br)cc(-n2ccc(=O)[nH]c2=O)cc1-c1ccc2cc(NS(C)(=O)=O)ccc2c1 [IB-L0-2.69, N-(6-(3-bromo-5-(2,4-dioxo-3,4-dihydropyrimidin-1(2H)-yl)-2-methoxyphenyl)naphthalen-2-yl)methanesulfonamide] | 10 to 100 nM | 100 to 1000 nM | 10 to 100 nM | 10 to 100 nM
COc1c(-c2nc3cc([N+](=O)[O-])ccc3o2)cc(N2CCC(=O)NC2=O)cc1C(C)(C)C [IA-L0-2.7, 1-(3-tert-butyl-4-methoxy-5-(5-nitrobenzo[d]oxazol-2-yl)phenyl) dihydropyrimidine-2,4(1H,3H)-dione] | 100 to 1000 nM | > 1000 nM | 100 to 1000 nM | 100 to 1000 nM
COc1c(-c2ccc3cc(NS(C)(=O)=O)ccc3c2)cc(-n2ccc(=O)[nH]c2=O)cc1C(C)(C)C [IB-L0-2.3, N-(6-(3-tert-butyl-5-(2,4-dioxo-3,4-dihydropyrimidin-1(2H)-yl)-2-methoxyphenyl)naphthalen-2-yl)methanesulfonamide] | < 10 nM | < 10 nM | < 10 nM | < 10 nM
COc1c(-c2ccc3cc(NS(C)(=O)=O)ccc3c2)cc(N2CCC(=O)NC2=O)cc1C(C)(C)C [IA-L0-2.9, N-(6-(3-tert-butyl-5-(2,4-dioxotetrahydropyrimidin-1(2H)-yl)-2-methoxyphenyl)naphthalen-2-yl)methanesulfonamide] | < 10 nM | < 10 nM | < 10 nM | < 10 nM
COc1c(-c2ccc3nc(Cl)sc3c2)cc(-n2ccc(=O)[nH]c2=O)cc1C(C)(C)C [IB-L0-2.38, 1-(3-tert-butyl-5-(2-chlorobenzo[d]thiazol-6-yl)-4-methoxyphenyl)pyrimidine-2,4(1H,3H)-dione] | 10 to 100 nM | > 1000 nM | 100 to 1000 nM | > 1000 nM
COc1c(-c2ccc3c(CNS(C)(=O)=O)noc3c2)cc(-n2ccc(=O)[nH]c2=O)cc1C(C)(C)C [IB-L0-2.45] | 100 to 1000 nM | > 1000 nM | 100 to 1000 nM | 100 to 1000 nM
COc1c(-c2nc3cc(NS(C)(=O)=O)ccc3o2)cc(-n2ccc(=O)[nH]c2=O)cc1C(C)(C)C [IB-L0-2.6, N-(2-(3-tert-butyl-5-(2,4-dioxo-3,4-dihydropyrimidin-1(2H)-yl)-2-methoxyphenyl)benzo[d]oxazol-5-yl)methanesulfonamide] | 10 to 100 nM | 100 to 1000 nM | 10 to 100 nM | 10 to 100 nM
COc1c(-c2ccc3ncsc3c2)cc(-n2ccc(=O)[nH]c2=O)cc1C(C)(C)C [IB-L0-2.33, 1-(3-(benzo[d]thiazol-6-yl)-5-tert-butyl-4-methoxyphenyl)pyrimidine-2,4(1H,3H)-dione] | 10 to 100 nM | 100 to 1000 nM | 10 to 100 nM | 100 to 1000 nM
COc1c(-c2ccc3nc(NS(C)(=O)=O)cnc3c2)cc(-n2ccc(=O)[nH]c2=O)cc1C(C)(C)C [IB-L0-2.26, N-(6-(3-tert-butyl-5-(2,4-dioxo-3,4-dihydropyrimidin-1(2H)-yl)-2-methoxyphenyl)quinoxalin-2-yl)methanesulfonamide] | 10 to 100 nM | > 1000 nM | 10 to 100 nM | 100 to 1000 nM
CC(C)(C)c1cc(-c2ccc3cc(NS(C)(=O)=O)ccc3c2)cc(-n2ccc(=O)[nH]c2=O)c1 [IB-L0-2.8, N-(6-(3-tert-butyl-5-(2,4-dioxo-3,4-dihydropyrimidin-1(2H)-yl)phenyl)naphthalen-2-yl)methanesulfonamide] | 10 to 100 nM |  | 10 to 100 nM | 10 to 100 nM
CCC(C)(C)c1cc(-n2ccc(=O)[nH]c2=O)cc(-c2ccc3cc(NS(C)(=O)=O)ccc3c2)c1OC [IB-L0-2.52, N-(6-(5-(2,4-dioxo-3,4-dihydropyrimidin-1(2H)-yl)-2-methoxy-3-tert-pentylphenyl)naphthalen-2-yl)methanesulfonamide] | 10 to 100 nM | 10 to 100 nM | < 10 nM | < 10 nM
COC(=O)C(C)(C)c1cc(-n2ccc(=O)[nH]c2=O)cc(-c2ccc3cc(NS(C)(=O)=O)ccc3c2)c1OC [IB-L0-2.70, methyl 2-(5-(2,4-dioxo-3,4-dihydropyrimidin-1(2H)-yl)-2-methoxy-3-(6-(methylsulfonamido)naphthalen-2-yl)phenyl)-2-methylpropanoate] | 100 to 1000 nM | > 1000 nM | 10 to 100 nM | 100 to 1000 nM
COc1c(-c2ccc3c(c2)CC/C3=N\NS(C)(=O)=O)cc(-n2ccc(=O)[nH]c2=O)cc1C(C)(C)C [IB-L0-2.4, (E)-N′-(5-(3-tert-butyl-5-(2,4-dioxo-3,4-dihydropyrimidin-1(2H)-yl)-2-methoxyphenyl)-2,3-dihydro-1H-inden-1-ylidene)methanesulfonohydrazide] | < 10 nM |  | < 10 nM | < 10 nM
CCCNc1nc2ccc(-c3cc(-n4ccc(=O)[nH]c4=O)cc(C(C)(C)C)c3OC)cc2s1 [IB-L0-2.46, 1-(3-tert-butyl-4-methoxy-5-(2-(propylamino)benzo[d]thiazol-6-yl)phenyl)pyrimidine-2,4(1H,3H)-dione] | 100 to 1000 nM |  | 100 to 1000 nM | 
COc1c(-c2ccc3nc(-n4c(C)ccc4C)sc3c2)cc(-n2ccc(=O)[nH]c2=O)cc1C(C)(C)C [IB-L0-2.47, 1-(3-tert-butyl-5-(2-(2,5-dimethyl-1H-pyrrol-1-yl)benzo[d]thiazol-6-yl)-4-methoxyphenyl)pyrimidine-2,4(1H,3H)-dione] | > 1000 nM |  | > 1000 nM | 
COc1c(-c2ccc3c(c2)CC=C3CN(C)S(C)(=O)=O)cc(-n2ccc(=O)[nH]c2=O)cc1C(C)(C)C [IB-L0-2.16] | 10 to 100 nM |  | < 10 nM | 
